In PubChem BioAssay (NCI):
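GI50 = concentration required for 50% inhibition of growth. At the TGI there is no net growth.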

Experiments:
Test in all cases: NCI tumour cell line growth inhibition, 384-well format
HOP-92 NSCLC = test system: HOP-92 NSCLC
KM12 colon = test system: KM12 colon
SK-MEL-5 melanoma = test system: SK-MEL-5 melanoma
A498 renal = test system: A498 renal
SK-OV-3 ovarian = test system: SK-OV-3 ovarian
MALME-3M melanoma = test system: MALME-3M melanoma
OVCAR-4 ovarian = test system: OVCAR-4 ovarian
NCI-H322M lung = test system: NCI-H322M lung
MOLT-4 leukemia = test system: MOLT-4 leukemia
EKVX NSCLC = test system: EKVX NSCLC
NCI-H23 lung = test system: NCI-H23 lung
SN12C renal = test system: SN12C renal
SW-620 colon = test system: SW-620 colon
IGROV1 ovarian = test system: IGROV1 ovarian
SNB-75 CNS = test system: SNB-75 CNS
OVCAR-3 ovarian = test system: OVCAR-3 ovarian
SF-295 CNS = test system: SF-295 CNS
UACC-257 melanoma = test system: UACC-257 melanoma
MDA-MB-435 melanoma = test system: MDA-MB-435 melanoma
NCI/ADR-RES ovarian = test system: NCI/ADR-RES ovarian
MDA-MB-231 breast = test system: MDA-MB-231 breast
LOX IMVI melanoma = test system: LOX IMVI melanoma
SNB-19 CNS = test system: SNB-19 CNS
T-47D breast = test system: T-47D breast
TK-10 renal = test system: TK-10 renal
MCF7 breast = test system: MCF7 breast
HT29 colon = test system: HT29 colon
MDA-MB-468 breast = test system: MDA-MB-468 breast
OVCAR-5 ovarian = test system: OVCAR-5 ovarian
RPMI-8226 leukemia = test system: RPMI-8226 leukemia
HOP-62 NSCLC = test system: HOP-62 NSCLC
NCI-H460 NSCLC = test system: NCI-H460 NSCLC
HCC-2998 colon = test system: HCC-2998 colon
SR leukemia = test system: SR leukemia
ACHN renal = test system: ACHN renal
CAKI-1 renal = test system: CAKI-1 renal
NCI-H522 lung = test system: NCI-H522 lung
BT-549 breast = test system: BT-549 breast
RXF 393 renal = test system: RXF 393 renal
NCI-H226 lung = test system: NCI-H226 lung
DU-145 prostate = test system: DU-145 prostate
SK-MEL-28 melanoma = test system: SK-MEL-28 melanoma
K-562 leukemia = test system: K-562 leukemia
M14 melanoma = test system: M14 melanoma
HCT-15 colon = test system: HCT-15 colon
OVCAR-8 ovarian = test system: OVCAR-8 ovarian
HL-60(TB) leukemia = test system: HL-60(TB) leukemia
COLO 205 colon = test system: COLO 205 colon
SF-539 CNS = test system: SF-539 CNS
A549 NSCLC = test system: A549 NSCLC
HS 578T breast = test system: HS 578T breast
U251 glioblastoma = test system: U251 glioblastoma
CCRF-CEM leukemia = test system: CCRF-CEM leukemia
UO-31 renal = test system: UO-31 renal
SF-268 CNS = test system: SF-268 CNS
UACC-62 melanoma = test system: UACC-62 melanoma
PC-3 prostate = test system: PC-3 prostate
786-0 renal = test system: 786-0 renal

SMILES: COc1ccc(Br)cc1NC(=O)Nc1cccc2c1ccn2Cc1ccnc(N)c1
- GI50 (HOP-92 NSCLC): 5.73 µM
- TGI (HOP-92 NSCLC): 18.3 µM
- GI50 (KM12 colon): 2.54 µM
- TGI (KM12 colon): 5.81 µM
- GI50 (SK-MEL-5 melanoma): 4.55 µM
- TGI (SK-MEL-5 melanoma): 15.4 µM
- GI50 (A498 renal): 3.56 µM
- TGI (A498 renal): 13.5 µM
- GI50 (SK-OV-3 ovarian): 8.96 µM
- TGI (SK-OV-3 ovarian): 21.1 µM
- GI50 (MALME-3M melanoma): 7.13 µM
- TGI (MALME-3M melanoma): 19.9 µM
- GI50 (OVCAR-4 ovarian): 3.72 µM
- TGI (OVCAR-4 ovarian): 9.86 µM
- GI50 (NCI-H322M lung): 8.46 µM
- TGI (NCI-H322M lung): 21.4 µM
- GI50 (MOLT-4 leukemia): 1.56 µM
- TGI (MOLT-4 leukemia): 3.55 µM
- GI50 (EKVX NSCLC): 8.67 µM
- TGI (EKVX NSCLC): 22 µM
- GI50 (NCI-H23 lung): 9.53 µM
- TGI (NCI-H23 lung): 21.6 µM
- GI50 (SN12C renal): 6.14 µM
- TGI (SN12C renal): 19.2 µM
- GI50 (SW-620 colon): 12.4 µM
- TGI (SW-620 colon): 25 µM
- GI50 (IGROV1 ovarian): 11.3 µM
- TGI (IGROV1 ovarian): 23.6 µM
- GI50 (SNB-75 CNS): 14.1 µM
- TGI (SNB-75 CNS): 29.7 µM
- GI50 (OVCAR-3 ovarian): 10 µM
- TGI (OVCAR-3 ovarian): 21.7 µM
- GI50 (SF-295 CNS): 2.82 µM
- TGI (SF-295 CNS): 8.47 µM
- GI50 (UACC-257 melanoma): 4.42 µM
- TGI (UACC-257 melanoma): 14.2 µM
- GI50 (MDA-MB-435 melanoma): 10.9 µM
- TGI (MDA-MB-435 melanoma): 23 µM
- GI50 (NCI/ADR-RES ovarian): 10.5 µM
- TGI (NCI/ADR-RES ovarian): 23 µM
- GI50 (MDA-MB-231 breast): 13.2 µM
- TGI (MDA-MB-231 breast): 26.1 µM
- GI50 (LOX IMVI melanoma): 4.85 µM
- TGI (LOX IMVI melanoma): 15.2 µM
- GI50 (SNB-19 CNS): 9.24 µM
- TGI (SNB-19 CNS): 21.7 µM
- GI50 (T-47D breast): 3.77 µM
- TGI (T-47D breast): 11.8 µM
- GI50 (TK-10 renal): 6.85 µM
- TGI (TK-10 renal): 20 µM
- GI50 (MCF7 breast): 5.26 µM
- TGI (MCF7 breast): 18.3 µM
- GI50 (HT29 colon): 2.01 µM
- TGI (HT29 colon): 4.13 µM
- GI50 (MDA-MB-468 breast): 2.81 µM
- TGI (MDA-MB-468 breast): 5.07 µM
- GI50 (OVCAR-5 ovarian): 11.8 µM
- TGI (OVCAR-5 ovarian): 24.6 µM
- GI50 (RPMI-8226 leukemia): 2.35 µM
- TGI (RPMI-8226 leukemia): 6.39 µM
- GI50 (HOP-62 NSCLC): 11.7 µM
- TGI (HOP-62 NSCLC): 24.1 µM
- GI50 (NCI-H460 NSCLC): 3.15 µM
- TGI (NCI-H460 NSCLC): 9.4 µM
- GI50 (HCC-2998 colon): 3.51 µM
- TGI (HCC-2998 colon): 8.43 µM
- GI50 (SR leukemia): 1.75 µM
- TGI (SR leukemia): 3.72 µM
- GI50 (ACHN renal): 7.08 µM
- TGI (ACHN renal): 20.3 µM
- GI50 (CAKI-1 renal): 10.7 µM
- TGI (CAKI-1 renal): 22.8 µM
- GI50 (NCI-H522 lung): 3.51 µM
- TGI (NCI-H522 lung): 10.6 µM
- GI50 (BT-549 breast): 9.64 µM
- TGI (BT-549 breast): 21.5 µM
- GI50 (RXF 393 renal): 6.56 µM
- TGI (RXF 393 renal): 18.7 µM
- GI50 (NCI-H226 lung): 5.77 µM
- TGI (NCI-H226 lung): 17.9 µM
- GI50 (DU-145 prostate): 12.9 µM
- TGI (DU-145 prostate): 27.9 µM
- GI50 (SK-MEL-28 melanoma): 11.5 µM
- TGI (SK-MEL-28 melanoma): 23.7 µM
- GI50 (K-562 leukemia): 1.47 µM
- TGI (K-562 leukemia): 2.81 µM
- GI50 (M14 melanoma): 6.29 µM
- TGI (M14 melanoma): 18.1 µM
- GI50 (HCT-15 colon): 2.02 µM
- TGI (HCT-15 colon): 3.63 µM
- GI50 (OVCAR-8 ovarian): 11.9 µM
- TGI (OVCAR-8 ovarian): 24.5 µM
- GI50 (HL-60(TB) leukemia): 1.87 µM
- TGI (HL-60(TB) leukemia): 4.64 µM
- GI50 (COLO 205 colon): 5.82 µM
- TGI (COLO 205 colon): 18.2 µM
- GI50 (SF-539 CNS): 4.44 µM
- TGI (SF-539 CNS): 18 µM
- GI50 (A549 NSCLC): 7.56 µM
- TGI (A549 NSCLC): 20.2 µM
- GI50 (HS 578T breast): 6.06 µM
- TGI (HS 578T breast): 17.8 µM
- GI50 (U251 glioblastoma): 6.92 µM
- TGI (U251 glioblastoma): 19.5 µM
- GI50 (CCRF-CEM leukemia): 2.49 µM
- TGI (CCRF-CEM leukemia): 5.33 µM
- GI50 (UO-31 renal): 12.2 µM
- TGI (UO-31 renal): 24.9 µM
- GI50 (SF-268 CNS): 9.97 µM
- TGI (SF-268 CNS): 21.9 µM
- GI50 (UACC-62 melanoma): 5.8 µM
- TGI (UACC-62 melanoma): 18.6 µM
- GI50 (PC-3 prostate): 6.67 µM
- TGI (PC-3 prostate): 18.9 µM
- GI50 ([…]-0 renal): 4.23 µM
- TGI (786-0 renal): 16.6 µM
